Data on 2 sequences can be found in patent US20260275319A1, “ARCHAEAL PEPTIDE RECOMBINASE – A NOVEL PEPTIDE LIGATING ENZYME” (MAX-PLANCK-GESELLSCHAFT ZUR FÖRDERUNG DER WISSENSCHAFTEN …, priority 2019, published 2026).

In assay [1] the target is M. jannaschii Adriase^S1A. As to conditions: MST, 25° C., 10 nM FITC peptide, three independent measurements.
Description: MST measurements were performed with a Monolith NT.115 (Nanotemper), using various MST power and laser intensity settings to test the general validity of the obtained data. The final results were obtained in three independent experiments and measured at a temperature of 25° C., using MST power 80% and laser intensity 40%.
In a second set of MST experiments, a more detailed analysis of the binding motif (FIG. 18A-F and table in FIG. 5B) was performed using synthetic peptides (Genscript) based on the M. jannaschii MtrA sequence. […] For the MST measurements, 10 nM of these peptides were mixed with a serial dilution of M. jannaschii Adriase^S1A and the experiment was otherwise performed as described for the M. jannaschii MtrA^Δ194-245-Adriase^S1A and the M. jannaschii MtrA^Δ174-245 Adriase^S1A interactions, above.
The test system of the next assay is M. mazei Adriase. In words: Ligation motif analysis with primary and secondary substrates. In kind it is biochemical. As to conditions: 25 μM substrates, 400× molar excess over Adriase, 50° C.

Sequence of M. jannaschii Adriase^S1A (as listed by the source): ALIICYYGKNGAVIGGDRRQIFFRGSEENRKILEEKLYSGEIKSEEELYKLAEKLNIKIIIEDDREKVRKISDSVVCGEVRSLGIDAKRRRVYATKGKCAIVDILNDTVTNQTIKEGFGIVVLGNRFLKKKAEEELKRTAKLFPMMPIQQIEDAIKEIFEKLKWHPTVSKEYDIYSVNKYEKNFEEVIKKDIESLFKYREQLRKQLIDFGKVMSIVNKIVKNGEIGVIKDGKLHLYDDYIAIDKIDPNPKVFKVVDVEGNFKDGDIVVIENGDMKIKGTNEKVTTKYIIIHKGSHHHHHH

With “KECLSKDPGAIDEDPFIIELKFITC [(5)KDPGA(10)]”, the KD result in assay [1] was “as tightly as M. jannaschii MtrA^Δ194-245”. With “PGAFDADP (Methanosarcina mazei Go1; M. mazei PGA(5); listed as Methanosarcina mazei) [M. mazei MtrA-derived secondary substrate peptide]”, in the assay on M. mazei Adriase, the “Adriase activity with substrate” value is recorded as “No Adriase activity”.
